# Assay results reported in patent US20230159436A1, “APPLICATIONS OF AMIDE ANALOGS OF TRITERPENES IN CURES OF CANCER AND OTHER DISEASES” (Pacific Arrow Limited, priority 2021, published 2023).
# What was measured:
# [1] = Pharmacokinetic (PK) study: blood from cutting tail; assay type: in vivo, mice; conditions: IP 100 mg/kg, estimated
# Description: Pharmacokinetic (PK) Study: Blood from Cutting Tail • Method: • Drug-Treatment: • Mice: CD-1 female mice (6-7 weeks, 23-25 g) • mice were injected (IP) with Test drug sample (10 mg/ml, in […] at a dose of 100 mg/kg. • Blood was obtained from a mouse by cut-tail at 0.5, 2 and 4 hours after drug treatments. • At 24 hours after the drug treatment, mice were anesthetized with isoflurane and blood was obtained with cardiac puncture. Animals were then euthanized by cervical dislocation. • Plasma Isolation: • Blood (50-100 ul) was centrifuged (2000 g, 15 minutes). Plasma was collected from the top layer. • 1 volume of plasma was mixed with 3 volume of acetonitrile/0.005% TFA. Mixture was stored in refrigerator overnight. • Sample was centrifuged (16000 g,10 minutes). Supernatant (called Plasma in 75% AN/TFA soluble fractions) was collected and subjected to HPLC analysis. • HPLC Analysis Conditions: • Column: C18 μBondapak • Solvent: 60% acetonitrile/0.005% TFA (Trifluoroacetic acid) • Gradient: isocratic • Flow rate and run time: 1 ml/min for 30 minutes • Detection wavelength: 207 nm • O.D. range: 0.05 full scale • Calculation: • Standard cures of Test Drug is constructed (Area/3000K=1 ug Test Drug) • Area of Test Drug Peak from Sample is Recorded • Amount of Test Drug was calculated according to standard cures.
# MCF-7 = assay: MTT assay, breast (MCF-7); assay type: cell-based
# Description: (§1) Cells. HTB-9 (bladder), HeLa-S3 (cervix), DU145 (prostate), H460 (lung), MCF-7 (breast), K562 (leukemia), HCT116 (colon), HepG2 (liver), U2OS (bone), T98G (brain), SK-MEL-5 (Skin) and OVCAR 3, ES2 (ovary), Pancreas (Capan), Mouth (KB), Kidney (A498).
# (§2) MTT Assay. The procedure for MTT assay followed the method described by Carmichael et al. (1987) with modifications. The cells were seeded into a 96-well plate at for 24 hours before drug-treatment. The cells were then exposed to the drugs for 48, 72, or 96 hours. After the drug-treatment, MTT (0.5 mg/mL) was added to cultures and incubated for an hour. The formazan (product of the reduction of tetrazolium by viable cells) formed and was dissolved with DMSO and the O.D. at 490 nm, and was measured by an ELISA reader. The MTT level of the cells before drug-treatment was also measured (T0). The % cell-growth (% G) is calculated as: % G=(TD−T0/TC−T0)×100(1), where TC or TD represents O.D. readings of control or drug-treated cells.
# (§3) When T0>TD, then the cytotoxicity (LC) expressed as % of the control is calculated as: % LC=(TD−T0/T0)×100(2).
# HepG2 = assay: MTT assay, liver (HepG2); assay type: cell-based
# Description: as §1, §2, §3
# SK-Mel-5 = assay: MTT assay, skin (SK-Mel-5); assay type: cell-based
# Description: as §1, §2, §3
# T98G = assay: MTT assay, brain (T98G); assay type: cell-based
# Description: as §1, §2, §3
# KB cells = assay: MTT assay, mouth (KB); assay type: cell-based
# Description: as §1, §2, §3
smiles,measurement,setting,value
"CC=C(C)C(=O)OCC1(C)C(O)CCC2(C)C1CCC1(C)C2CC=C2C3CC(C)(C)C(O)C(O)C3(COC(=O)C(C)=CC)C(O)CC21C (stereo not drawn) [Tig-R, 24,28-O-Tigloyl-3β,16α,21β,22α,24β,28-hexahydroxyolean-12-ene]",half-life,[1],about one
same,IC50 of breast (MCF-7),MCF-7,4.5 µg/mL
same,IC50 of liver (HepG2),HepG2,6 µg/mL
same,IC50 of skin (SK-Mel-5),SK-Mel-5,5.1 µg/mL
same,IC50 of brain (T98G),T98G,8 µg/mL
same,IC50 of mouth (KB),KB cells,3 µg/mL
